Measurements taken from EP0796866A1, “Antithrombotic diamides” (ELI LILLY AND COMPANY, priority 1996, dated 1997).
Structures can show the parent of a compound that is named as a salt.

What was measured:
Format in all cases: biochemical
[1] = target: T1, human thrombin (Homo sapiens, UniProt P00734); experiment: inhibition of the amidase activity of thrombin (chromogenic substrate), Kass; details: hypothetical equilibrium (association) constant thrombin + test compound; mean over a range of concentrations; pH 7.4
T1 construct: purified human thrombin; purchased Enzyme Research Laboratories, South Bend, Indiana
Protocol: The assay is carried out by mixing 50 µl buffer (0.03M Tris, 0.15M NaCl, pH 7.4) with 25 µl of human thrombin solution (purified human thrombin, Enzyme Research Laboratories, South Bend, Indiana, at 8 NIH units/ml) and 25 µl of test compound in a solvent (50% aqueous methanol (v:v)). Then 150 µl of an aqueous solution of the chromogenic substate (at 0.25 mg/ml) are added and the rates of hydrolysis of the substrate are measured by monitoring the reactions at 405 nm for the release of p-nitroaniline. Standard curves are constructed by plotting free thrombin concentration against hydrolysis rate. The hydrolysis rates observed with test compounds are then converted to "free thrombin" values in the respective assays by use of the standard curves. The bound thrombin (bound to test compound) is calculated by subtracting the amount of free thrombin observed in each assay from the known initial amount of thrombin used in the assay. The amount of free inhibitor in each assay is calculated by subtracting the number of moles of bound thrombin from the number of moles of added inhibitor (test compound). […]
Kass is calculated for a range of concentrations of test compounds and the mean value reported in units of liter per mole. […] For example, each of the particularly preferred examples of the invention listed above was determined to have a Kass of at least 5 X 10^6 L/mole.

[2] = test system: human or animal plasma; experiment: thrombin time (TT) coagulation assay in plasma; details: concentration required to double the clotting time, linear extrapolation; thrombin 10 NIH units/ml
Protocol: (§1) Dog plasma and rat plasma are obtained from conscious mixed-breed hounds (either sex, hazelton-LRE, Kalamazoo, Michigan, U.S.A.) or from anesthetized male Sprague-Dawley rats (Harlan Sprague-Dawley, Inc., Indianapolis, Indiana, U.S.A.) by venipuncture into 3.8 percent citrate. Fibrinogen is prepared from in-date ACD human blood as the fraction I-2 according to previous procedures and specifications. Smith, Biochem. J., 185, 1-11 (1980); and Smith, et al., Biochemistry, 11, 2958-2967 (1972). Human fibrinogen is also purchased as 98 percent pure/plasmin free from American Diagnostica, Greenwich, Connecticut. Coagulation reagents ACTIN, Thromboplastin, and Human plasma are from Baxter Healthcare Corp., Dade Division, Miami, Florida. […]
(§2) Coagulation assay procedures are as previously described. […] The thrombin time (TT) is measured by adding 0.05 ml saline and 0.05 ml thrombin (10 NIH units/ml) to 0.05 ml test plasma. The activated partial thromboplastin time (APTT) is measured by incubation of 0.05 ml test plasma with 0.05 ml Actin reagent for 120 seconds followed by 0.05 ml CaCl2 (0.02 M). The prothrombin time (PT) is measured by adding 0.05 ml saline and 0.05 ml Thromboplastin-C reagent to 0.05 ml test plasma. […] Each of the particularly preferred examples of the invention listed above was determined to have a TT value of less than 100 ng/mL. […]

[3] = test system: human or animal plasma; experiment: activated partial thromboplastin time (APTT) coagulation assay in plasma; details: concentration required to double the clotting time, linear extrapolation; Actin reagent, CaCl2
Protocol: as §1, §2

[4] = test system: human or animal plasma; experiment: prothrombin time (PT) coagulation assay in plasma; details: concentration required to double the clotting time, linear extrapolation; Thromboplastin-C reagent
Protocol: as §1, §2

Row | Kd [1] [nM] | Structure (SMILES) | TT [2] [ng/mL] | APTT [3] [ng/mL] | PT [4] [ng/mL]
1 | 12.5 | O=C(O)CN[C@H](CC1CCCCC1)C(=O)N1CCC[C@H]1C(=O)NCCCc1c[nH]cn1 [Example 8, N-(carboxymethyl)-D-cyclohexylalanyl-N-[3-(imidazol-4-yl)propyl]-L-prolinamide hydrochloride] | 20 | 170 | 380
2 | 17.5 | O=C(O)CN[C@H](CC1CCCCC1)C(=O)N1CCC[C@H]1C(=O)NC/C=C/c1c[nH]cn1 [Example 7, N-(carboxymethyl)-D-cyclohexylalanyl-N-[(E)-3-(imidazol-4-yl)prop-2-enyl]-L-prolinamide hydrochloride] | 30 | 280 | 430
